Consider two substances from patent publication US20080039410A1, “Inositol 1,4,5-Trisphosphate Receptor Mutants and Uses Thereof” (priority 2004, published 2008).

The target of experiment [1] is T1, S2+ InsP3R-1 (Rattus norvegicus, UniProt P29994, S1756E).
T1 construct: The entire receptor DNA was excised from the plasmid using EcoRI and ligated into the plasmid MXT-1; expressed in transfected cells; host or cells: DT-40 3ko (chicken B cells lacking all InsP3R), co-transfected with m3 muscarinic receptor and HcRed
The experiment in a line: Flash photolysis of caged InsP3 (ci-IP3/PM), Fluo-4, DT-40 3ko cells expressing S2+ InsP3R-1 constructs. In kind it is cell-based. The note with it: UV flash 0.5-5 ms. How it is done:
Transfected cells were simultaneously loaded by incubation with the visible wavelength indicator Fluo-4 and a cell permeable form of caged-inositol trisphosphate (ciIP3/PM) for 30 min. Ci-IP3/PM is a homologue of cm-IP3/PM [45] The 2- and 3-hydroxyls of the inositol ring were protected by an isopropylidene group in ci-IP3/PM, and were protected by a methoxymethylene group in cm-IP3/PM. Like cm-IP3/PM, ci-IP3/PM diffuses across cell membranes and induces internal calcium release upon photo-uncaging. A further period of approximately 30 min was allowed for de-esterification of both dye and cage. Cells were illuminated at 488±10 nm and fluorescence collected through a 525±25 nm band pass filter and captured using the Till Photonics imaging suite. […] Photolytic release was performed as previously described using a pulsed Xenon arc lamp (Till Photonics). […]
Transfected cells were simultaneously loaded with the visible wavelength indicator Fluo-4 and a cell-permeable form of caged inositol trisphosphate (ci-IP3/PM) for 30 min. ci-IP3/PM is a homologue of cm-IP3/PM. […] Cells were illuminated at 488±10 nm and fluorescence collected through a 525±25-nm bandpass filter and captured using the Till Photonics imaging suite. […]

Experiment [2] deals with S2− InsP3R-1. The experiment in a line: Flash photolysis of caged InsP3 (ci-IP3/PM), Fluo-4, Dt-40 3ko cells expressing S2− InsP3R-1 constructs. In kind it is cell-based, rat. How it is done:
Transfected cells were simultaneously loaded with the visible wavelength indicator Fluo-4 and a cell-permeable form of caged inositol trisphosphate (ci-IP3/PM) for 30 min. ci-IP3/PM is a homologue of cm-IP3/PM. The 2- and 3-hydroxyls of the inositol ring are protected by an isopropylidene group in ci-IP3/PM and are protected by a methoxymethylene group in cm-IP3/PM (45). Like cm-IP3/PM, ci- IP3/PM diffuses across cell membranes, and the PM group is hydrolyzed by cellular esterases, and Ca^2+ release can be induced upon photouncaging as i-IP3 is liberated from the cage and acts in a similar fashion to InSP3 at InsP3R^2. A further period of 30 min was allowed for de-esterification of both dye and cage. Cells were illuminated at 488±10 nm and fluorescence collected through a 525±25-nm bandpass filter and captured using the Till Photonics imaging suite. […] Photolytic release was performed as described previously by using a pulsed xenon arc lamp (Till Photonics). A high intensity (0.5-5 ms duration; 80 J) discharge of UV light (360±7.5 nm) was reflected onto the plane of focus by using a DM400 dichroic mirror and Nikon 40× oil immersion objective, 1.3 NA.
To investigate the consequences of InsP3R-1 phosphorylation, the Ca^2+ release properties of phosphomimetic mutations in the functionally important sites in both S2+ and S2− InsP3R-1 was analyzed in Dt-40 3ko cells. This cell line provides the only known InsP3R null background (42, 43). In initial experiments, a comparison was made between the sensitivity of Ca^2+ release by InsP3R-1 phosphomimetic mutations versus nonphosphorylatable alanine mutations at the sites. Dt-40 3ko cells were transfected with DNA encoding HcRed to facilitate identification of transfected cells and either S2− S1589E/S1755E InsP3R-1 (S2−EE) or S2− S1589A/S1755A (S2−AA). Ca^2+ release was monitored following flash photolysis of ci-IP3, a cell-permeable form of caged InSP3. This experimental paradigm provides a relatively direct assessment of the effects of InsP3R-1 phosphorylation on the Ca^2+ release process. […]

Entries after “also recorded” stand apart in the source; their conditions may differ.

S2− InsP3R-1, sequence (P29994 1-604 limits assumed): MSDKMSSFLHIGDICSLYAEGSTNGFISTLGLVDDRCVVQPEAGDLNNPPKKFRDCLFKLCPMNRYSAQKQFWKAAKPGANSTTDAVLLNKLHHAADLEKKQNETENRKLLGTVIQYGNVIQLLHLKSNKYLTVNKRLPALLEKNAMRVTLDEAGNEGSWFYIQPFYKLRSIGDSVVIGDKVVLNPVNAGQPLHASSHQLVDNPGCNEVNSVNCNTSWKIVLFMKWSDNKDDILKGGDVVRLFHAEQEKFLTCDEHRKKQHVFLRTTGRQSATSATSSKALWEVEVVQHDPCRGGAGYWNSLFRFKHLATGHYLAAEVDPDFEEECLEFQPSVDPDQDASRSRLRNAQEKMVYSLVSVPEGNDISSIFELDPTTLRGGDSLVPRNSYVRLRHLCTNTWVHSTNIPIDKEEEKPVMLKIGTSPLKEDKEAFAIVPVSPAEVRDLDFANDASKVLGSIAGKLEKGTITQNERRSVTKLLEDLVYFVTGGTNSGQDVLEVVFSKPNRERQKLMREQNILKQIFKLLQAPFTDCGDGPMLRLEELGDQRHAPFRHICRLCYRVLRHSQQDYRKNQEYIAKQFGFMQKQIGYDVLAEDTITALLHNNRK
T1 sequence (P29994 1-2749 isoform P29994-3 S1755E): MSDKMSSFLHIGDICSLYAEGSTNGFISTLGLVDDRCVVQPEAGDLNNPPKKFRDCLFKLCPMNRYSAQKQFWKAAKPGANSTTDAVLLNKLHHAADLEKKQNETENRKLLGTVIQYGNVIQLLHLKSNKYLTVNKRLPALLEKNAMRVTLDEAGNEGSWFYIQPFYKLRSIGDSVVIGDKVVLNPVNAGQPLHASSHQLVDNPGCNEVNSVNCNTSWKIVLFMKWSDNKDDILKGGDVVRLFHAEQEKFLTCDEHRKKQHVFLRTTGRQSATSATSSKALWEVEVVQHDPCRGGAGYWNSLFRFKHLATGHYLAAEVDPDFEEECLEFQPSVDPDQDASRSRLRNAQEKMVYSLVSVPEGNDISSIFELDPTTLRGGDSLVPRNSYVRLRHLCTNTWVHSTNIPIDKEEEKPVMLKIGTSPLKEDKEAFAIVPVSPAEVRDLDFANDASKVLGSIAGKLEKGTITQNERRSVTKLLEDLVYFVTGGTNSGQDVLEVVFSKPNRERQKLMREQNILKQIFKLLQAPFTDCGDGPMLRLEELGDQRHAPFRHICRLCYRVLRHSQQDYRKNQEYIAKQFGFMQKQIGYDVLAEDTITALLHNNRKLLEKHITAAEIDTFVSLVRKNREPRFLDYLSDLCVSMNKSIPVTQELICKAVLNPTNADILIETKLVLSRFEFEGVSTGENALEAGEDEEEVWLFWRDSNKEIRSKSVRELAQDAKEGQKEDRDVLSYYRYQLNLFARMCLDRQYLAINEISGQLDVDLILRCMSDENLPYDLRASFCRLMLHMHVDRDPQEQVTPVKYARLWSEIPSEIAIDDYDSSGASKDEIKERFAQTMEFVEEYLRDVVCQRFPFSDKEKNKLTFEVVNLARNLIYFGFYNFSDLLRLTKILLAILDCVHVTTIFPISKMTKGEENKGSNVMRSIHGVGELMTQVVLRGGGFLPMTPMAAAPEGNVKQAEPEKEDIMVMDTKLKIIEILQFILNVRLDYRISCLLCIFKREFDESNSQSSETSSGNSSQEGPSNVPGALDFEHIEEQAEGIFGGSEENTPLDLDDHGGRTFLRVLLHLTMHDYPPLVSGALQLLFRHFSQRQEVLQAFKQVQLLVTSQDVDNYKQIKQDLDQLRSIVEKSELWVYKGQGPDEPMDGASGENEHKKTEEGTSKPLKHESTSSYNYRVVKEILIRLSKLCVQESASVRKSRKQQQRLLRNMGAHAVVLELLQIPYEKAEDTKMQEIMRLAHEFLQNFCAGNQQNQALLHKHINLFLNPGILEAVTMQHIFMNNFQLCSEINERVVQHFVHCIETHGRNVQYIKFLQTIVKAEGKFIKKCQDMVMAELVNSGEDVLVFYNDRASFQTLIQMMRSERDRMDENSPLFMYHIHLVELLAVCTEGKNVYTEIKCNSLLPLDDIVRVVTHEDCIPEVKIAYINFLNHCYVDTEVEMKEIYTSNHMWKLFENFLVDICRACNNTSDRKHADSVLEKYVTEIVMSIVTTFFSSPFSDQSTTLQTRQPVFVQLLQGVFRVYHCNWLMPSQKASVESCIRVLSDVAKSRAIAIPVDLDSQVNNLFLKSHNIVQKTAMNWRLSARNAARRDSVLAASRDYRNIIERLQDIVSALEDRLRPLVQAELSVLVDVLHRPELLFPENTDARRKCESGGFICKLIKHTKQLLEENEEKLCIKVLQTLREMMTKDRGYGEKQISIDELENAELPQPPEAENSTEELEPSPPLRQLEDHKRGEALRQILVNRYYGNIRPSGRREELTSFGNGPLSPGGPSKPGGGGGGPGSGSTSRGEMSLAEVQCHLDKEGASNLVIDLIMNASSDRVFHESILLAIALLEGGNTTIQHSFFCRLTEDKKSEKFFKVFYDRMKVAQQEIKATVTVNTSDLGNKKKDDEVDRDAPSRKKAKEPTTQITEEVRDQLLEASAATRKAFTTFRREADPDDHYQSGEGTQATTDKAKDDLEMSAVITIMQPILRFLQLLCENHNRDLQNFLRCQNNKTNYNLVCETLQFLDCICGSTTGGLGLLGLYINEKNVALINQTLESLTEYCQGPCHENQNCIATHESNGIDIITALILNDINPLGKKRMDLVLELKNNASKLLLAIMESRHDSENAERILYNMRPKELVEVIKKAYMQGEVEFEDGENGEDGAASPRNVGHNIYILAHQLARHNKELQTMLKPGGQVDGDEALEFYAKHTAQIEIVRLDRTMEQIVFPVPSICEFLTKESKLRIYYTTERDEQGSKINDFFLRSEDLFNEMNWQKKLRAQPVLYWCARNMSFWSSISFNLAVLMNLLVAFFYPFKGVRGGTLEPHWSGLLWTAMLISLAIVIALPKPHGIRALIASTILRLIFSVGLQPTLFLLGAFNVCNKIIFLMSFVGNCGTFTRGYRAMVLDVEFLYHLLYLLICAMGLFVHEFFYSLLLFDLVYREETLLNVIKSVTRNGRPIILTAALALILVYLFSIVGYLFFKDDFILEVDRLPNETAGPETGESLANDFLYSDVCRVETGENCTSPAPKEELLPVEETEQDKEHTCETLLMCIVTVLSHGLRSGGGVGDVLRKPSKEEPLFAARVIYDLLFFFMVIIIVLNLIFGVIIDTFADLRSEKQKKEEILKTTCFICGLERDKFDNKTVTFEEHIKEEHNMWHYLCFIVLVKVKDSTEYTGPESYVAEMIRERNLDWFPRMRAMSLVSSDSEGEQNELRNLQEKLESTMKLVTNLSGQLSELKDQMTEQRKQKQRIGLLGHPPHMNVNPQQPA

For the substance “S2+SE: phosphomimetic S2+ InsP3R-1, long splice variant of S1755E”, the “response to photolysis of ci-IP3 versus nonphosphorylatable mutant” value in experiment [1] is “more robustly; also recorded: more sensitive than S2+SA”.
In the case of “S2−EE: phosphomimetic S1589E/S1755E mutant of the short splice variant”, in experiment [2] (0.5 ms UV discharge), the “cells showing Ca^2+ release (>0.05% ΔF/F)” value was ~60%. In addition, in experiment [2] (1.25 ms UV flash), the “cells showing Ca^2+ release” value is “all cells”. In experiment [2] (UV flash 0.5-5 ms), the “response to photolysis of ci-IP3 versus nonphosphorylatable mutant” value was “lower threshold of UV light exposure”.
